ChEMBL document CHEMBL1147987, “Novel aminoethylbiphenyls as 5-HT7 receptor ligands” (Bioorg Med Chem Lett, 2007)

How the values were obtained:
[1] = target: T1, 5-hydroxytryptamine receptor 7 (Homo sapiens, UniProt P34969); assay: Displacement of [3H]LSD from human 5HT7 in sf9 cells at 0.01 uM; type: cell-based
[2] = target: T2, 5-hydroxytryptamine receptor 1A (Rattus norvegicus) (UniProt P19327); assay: Binding affinity to rat 5HT1A at 0.01 uM
T2 sequence (whole entry): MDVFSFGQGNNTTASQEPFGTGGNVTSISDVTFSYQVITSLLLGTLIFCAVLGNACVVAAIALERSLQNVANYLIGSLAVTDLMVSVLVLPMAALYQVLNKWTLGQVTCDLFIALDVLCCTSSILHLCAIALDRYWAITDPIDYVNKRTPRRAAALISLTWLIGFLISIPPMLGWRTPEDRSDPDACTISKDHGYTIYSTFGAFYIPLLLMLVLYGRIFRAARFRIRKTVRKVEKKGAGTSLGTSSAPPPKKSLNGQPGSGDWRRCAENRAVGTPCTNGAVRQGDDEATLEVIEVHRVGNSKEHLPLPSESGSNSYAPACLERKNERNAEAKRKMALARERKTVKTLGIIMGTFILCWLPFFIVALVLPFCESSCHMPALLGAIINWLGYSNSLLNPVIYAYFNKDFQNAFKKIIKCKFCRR

[3] = target: T1, 5-hydroxytryptamine receptor 7; assay: Displacement of [3H]LSD from human 5HT7 in sf9 cells at 1 uM; type: cell-based
[4] = target: T2, 5-hydroxytryptamine receptor 1A (Rattus norvegicus); assay: Binding affinity to rat 5HT1A at 1 uM
[5] = Selectivity ratio of rat 5HT1A to human 5HT7
[6] = target: 5-hydroxytryptamine receptor 7 (Rattus norvegicus) (UniProt P32305); assay: Antagonist activity at 5HT7 receptor stimulated aldosterone secretion from rat adrenal cortex; type: functional, tissue-based
[7] = target: T1, 5-hydroxytryptamine receptor 7; assay: Displacement of [3H]LSD from human 5HT7 in sf9 cells; type: cell-based
[8] = target: T3, 5-hydroxytryptamine receptor 1A (Rattus norvegicus, UniProt P19327); assay: Binding affinity to rat 5HT1A
T3 sequence (P19327 whole entry): T2 sequence (whole entry)

T1 sequence (P34969 whole entry): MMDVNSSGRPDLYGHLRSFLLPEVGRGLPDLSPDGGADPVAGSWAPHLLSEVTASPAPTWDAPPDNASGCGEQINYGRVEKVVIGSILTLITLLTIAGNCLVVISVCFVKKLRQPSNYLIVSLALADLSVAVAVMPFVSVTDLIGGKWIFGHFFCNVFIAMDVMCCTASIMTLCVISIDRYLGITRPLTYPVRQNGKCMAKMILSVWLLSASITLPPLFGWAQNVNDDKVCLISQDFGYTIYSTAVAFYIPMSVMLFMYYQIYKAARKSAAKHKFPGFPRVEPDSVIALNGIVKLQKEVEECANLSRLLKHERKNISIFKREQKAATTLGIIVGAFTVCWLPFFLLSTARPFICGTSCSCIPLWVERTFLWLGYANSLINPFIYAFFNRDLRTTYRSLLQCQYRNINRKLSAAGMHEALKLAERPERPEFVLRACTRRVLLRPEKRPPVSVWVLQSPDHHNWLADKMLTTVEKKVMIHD
Sequence of 5-hydroxytryptamine receptor 7 (Rattus norvegicus) (P32305 whole entry): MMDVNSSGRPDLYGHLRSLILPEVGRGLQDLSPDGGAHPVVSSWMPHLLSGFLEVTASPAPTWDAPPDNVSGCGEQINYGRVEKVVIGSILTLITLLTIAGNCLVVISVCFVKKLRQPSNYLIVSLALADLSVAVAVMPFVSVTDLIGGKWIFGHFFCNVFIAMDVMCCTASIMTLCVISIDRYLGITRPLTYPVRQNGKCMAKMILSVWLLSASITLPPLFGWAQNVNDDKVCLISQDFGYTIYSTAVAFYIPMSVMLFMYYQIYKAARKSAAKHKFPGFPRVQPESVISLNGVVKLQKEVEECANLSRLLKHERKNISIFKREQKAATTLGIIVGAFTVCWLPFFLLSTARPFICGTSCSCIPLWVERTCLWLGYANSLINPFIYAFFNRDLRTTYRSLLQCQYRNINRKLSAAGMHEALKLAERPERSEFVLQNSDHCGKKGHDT

SMILES | inhibition [1] | inhibition [2] | inhibition [3] | inhibition [4] | Ratio Ki [5] | Activity ([6]; filed as partial agonist) | Ki [7] | Ki [8] | pKb [6]
Cc1cccc(-n2ccc(CCN)c2)c1C | 25% | 0% | 48% | 17% |  |  |  |  | 
CN(C)CCc1cccc(-c2ccsc2)c1 | 12% | 20% | 87% | 64% |  |  |  |  | 
Cc1ccccc1-n1ccc(CCN(C)C)c1 | 16% | 14% | 87% | 41% |  |  |  |  | 
COc1cccc(OC)c1-c1cccc(CCN(C)C)c1 | 50% | 3% | 100% | 18% | 60 | Partial agonist | 8.6 nM | 4830 nM | 
Cc1ccccc1-n1ccc(CCN)c1 | 5% | 0% | 62% | 16% |  |  |  |  | 
Cc1cccc(C)c1-c1cccc(CCN(C)C)c1 | 73% | 6% | 93% | 33% | 60 |  | 6.2 nM | 2250 nM | 
COc1ccc(-c2cccc(CCN(C)C)c2)cc1 | 9% | 0% | 52% | 37% |  |  |  |  | 
COc1ccccc1-c1cccc(CCN(C)C)c1 | 23% | 12% | 69% | 48% |  |  | 8.4 nM | 531 nM | 
Cc1cc(C)c(-n2ccc(CCN(C)C)c2)c(C)c1 | 3% | 0% | 56% | 20% |  |  |  |  | 
COc1ccc(-c2cccc(CCN(C)C)c2)cc1OC | 0% | 12% | 38% | 52% |  |  |  |  | 
CN(C)CCc1cccc(-c2cccs2)c1 | 12% | 6% | 75% | 63% |  |  |  |  | 
COc1cccc(OC)c1-c1cccc(CCN2CCOCC2)c1 | 0% | 7% | 9% | 14% |  |  |  |  | 
CN(C)CCc1cccc(-c2ccccc2)c1 | 18% | 2% | 70% | 18% |  |  |  |  | 
Cc1ccccc1-c1cccc(CCN(C)C)c1 | 72% | 1% | 81% | 85% |  |  | 7.6 nM | 443 nM | 7.03
Cc1ccccc1-c1cccc(CCN)c1 | 71% | 0% | 92% | 37% |  |  | 7.5 nM | 1470 nM | 
Cc1cc(C)c(-n2ccc(CCN)c2)c(C)c1 | 0% | 0% | 0% | 0% |  |  |  |  | 
